Reference: ChEMBL document CHEMBL1201862, “PubChem BioAssay data set” (2004)
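A five-concentration, 48-hour dose response in 96-well plates underlies each endpoint, interpolated linearly between surrounding concentrations. Here, GI50 denotes the concentration required for 50% inhibition of growth.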 Activity calls are given as the source filed them. Rule as the data show it: active = GI50 up to about 1.1 µM and inactive = higher.

How the values were obtained:
Assay in all cases: NCI tumour cell line growth inhibition, 48 h
[1] = test system: A549
[2] = test system: RPMI-8226
[3] = test system: CCRF-CEM
[4] = test system: RXF 393
[5] = test system: SN12C
[6] = test system: SNB-19
[7] = test system: MCF7
[8] = test system: HOP-62
[9] = test system: K562
[10] = test system: SK-MEL-2
[11] = test system: OVCAR-5
[12] = test system: COLO 205
[13] = test system: T47D
[14] = test system: HT-29
[15] = test system: UO-31
[16] = test system: NCI-H460
[17] = test system: BT-549
[18] = test system: HL-60
[19] = test system: NCI-H522
[20] = test system: Hs-578T

**Q.** What does the source list for `CC(C)Cc1ccc(C(C)CC2=CCC(CN(C)C)C2=O)cc1` (stereo not given)?
**A.** GI50 [1]: 18.3 µM (inactive); GI50 [2]: 0.333 µM (active); GI50 [3]: 2.4 µM (inactive); GI50 [4]: 5.78 µM (inactive); GI50 [5]: 9.1 µM (inactive); GI50 [6]: 15.3 µM (inactive); GI50 [7]: 1.17 µM (inactive); GI50 [8]: 21.1 µM (inactive); GI50 [9]: 2.25 µM (inactive); GI50 [10]: 13.2 µM (inactive); GI50 [11]: 16.1 µM (inactive); GI50 [12]: 2.69 µM (inactive); GI50 [13]: 1.86 µM (inactive); GI50 [14]: 6.38 µM (inactive); GI50 [15]: 16.4 µM (inactive); GI50 [16]: 31.7 µM (inactive); GI50 [17]: 19.5 µM (inactive); GI50 [18]: 1.96 µM (inactive); GI50 [19]: 4.06 µM (inactive); GI50 [20]: 18.3 µM (inactive)

**Q.** For `O=C(CCN1CCCCC1)N1CCc2c([nH]c3ccccc23)C1c1cccnc1` (stereo not given), which GI50 [1] is on record?
**A.** Its GI50 is > 93.3 µM (inactive).

**Q.** What about the GI50 [2] of the same compound?
**A.** The GI50 was 39.7 µM (inactive).

**Q.** What about the GI50 [3] of the same compound?
**A.** Its GI50 is 57.4 µM (inactive).

**Q.** And the GI50 [4]?
**A.** The GI50 was 28.7 µM (inactive).

**Q.** What about the GI50 [5] of the same compound?
**A.** The GI50 was > 81.5 µM (inactive).

**Q.** And the GI50 [6]?
**A.** The GI50 was > 100 µM (inactive).

**Q.** What about the GI50 [7] of the same compound?
**A.** Its GI50 is 99.3 µM (inactive).

**Q.** And the GI50 [8]?
**A.** Its GI50 is > 82.2 µM (inactive).

**Q.** And the GI50 [9]?
**A.** Its GI50 is 30.8 µM (inactive).

**Q.** What about the GI50 [10] of the same compound?
**A.** The GI50 was 18.3 µM (inactive).

**Q.** And the GI50 [11]?
**A.** The GI50 was > 73.3 µM (inactive).

**Q.** And the GI50 [12]?
**A.** Its GI50 is 21.7 µM (inactive).

**Q.** And the GI50 [13]?
**A.** The GI50 was 64.1 µM (inactive).

**Q.** And the GI50 [14]?
**A.** The GI50 was 32.4 µM (inactive).

**Q.** What about the GI50 [15] of the same compound?
**A.** Its GI50 is 38.3 µM (inactive).

**Q.** What about the GI50 [16] of the same compound?
**A.** The GI50 was 73.1 µM (inactive).

**Q.** And the GI50 [17]?
**A.** The GI50 was > 61.8 µM (inactive).

**Q.** And the GI50 [18]?
**A.** Its GI50 is 41.2 µM (inactive).

**Q.** What about the GI50 [19] of the same compound?
**A.** The GI50 was 35.3 µM (inactive).

**Q.** What about the GI50 [20] of the same compound?
**A.** The GI50 was 66.4 µM (inactive).

**Q.** What does the source list for `O=C1c2cc([N+](=O)[O-])sc2C(=O)c2ccsc21`?
**A.** GI50 [1]: 1.83 µM (inactive); GI50 [2]: 0.206 µM (active); GI50 [3]: 0.075 µM (active); GI50 [4]: 0.486 µM (active); GI50 [5]: 0.327 µM (active); GI50 [6]: 1.89 µM (inactive); GI50 [7]: 0.213 µM (active); GI50 [8]: 0.227 µM (active); GI50 [9]: 0.0216 µM (active); GI50 [10]: 1.06 µM (active); GI50 [11]: 1.69 µM (inactive); GI50 [12]: 0.525 µM (active); GI50 [13]: 0.478 µM (active); GI50 [14]: 0.665 µM (active); GI50 [15]: 1.2 µM (inactive); GI50 [16]: 0.306 µM (active); GI50 [17]: 0.438 µM (active); GI50 [18]: < 0.01 µM (active); GI50 [19]: 0.195 µM (active); GI50 [20]: 0.618 µM (active)

**Q.** Which results are given for `COC(=O)C(CCC1CC(OC)N(C(=O)OCc2ccccc2)C1)/N=C/c1ccccc1` (stereo not given)?
**A.** GI50 [1]: 83 µM (inactive); GI50 [2]: 27.6 µM (inactive); GI50 [3]: 41.9 µM (inactive); GI50 [4]: > 100 µM (inactive); GI50 [5]: > 100 µM (inactive); GI50 [6]: > 100 µM (inactive); GI50 [7]: 60 µM (inactive); GI50 [8]: > 100 µM (inactive); GI50 [9]: 45.2 µM (inactive); GI50 [10]: 26.1 µM (inactive); GI50 [11]: > 100 µM (inactive); GI50 [12]: 29.3 µM (inactive); GI50 [13]: 40.5 µM (inactive); GI50 [14]: 60.5 µM (inactive); GI50 [15]: 91.6 µM (inactive); GI50 [16]: 78.3 µM (inactive); GI50 [17]: > 100 µM (inactive); GI50 [18]: 47.8 µM (inactive); GI50 [19]: 30.6 µM (inactive); GI50 [20]: > 100 µM (inactive)

**Q.** For `COc1ccc2nc3c([N+](=O)[O-])ccc4c3c(c2c1)N(CCCN(C)C)C(=S)N4CCCN(C)C`, which GI50 [1] is on record?
**A.** Its GI50 is 5.45 µM (inactive).

**Q.** What about the GI50 [2] of the same compound?
**A.** The GI50 was 5.51 µM (inactive).

**Q.** And the GI50 [3]?
**A.** The GI50 was 4.98 µM (inactive).

**Q.** And the GI50 [4]?
**A.** Its GI50 is 9.53 µM (inactive).

**Q.** What about the GI50 [5] of the same compound?
**A.** Its GI50 is 5.11 µM (inactive).

**Q.** And the GI50 [6]?
**A.** Its GI50 is 9.71 µM (inactive).

**Q.** What about the GI50 [7] of the same compound?
**A.** The GI50 was 5.07 µM (inactive).

**Q.** And the GI50 [8]?
**A.** Its GI50 is 5.19 µM (inactive).

**Q.** And the GI50 [9]?
**A.** The GI50 was 1.77 µM (inactive).

**Q.** What about the GI50 [10] of the same compound?
**A.** The GI50 was 16.1 µM (inactive).

**Q.** What about the GI50 [11] of the same compound?
**A.** Its GI50 is 14.6 µM (inactive).

**Q.** What about the GI50 [12] of the same compound?
**A.** The GI50 was 1.54 µM (inactive).

**Q.** What about the GI50 [13] of the same compound?
**A.** Its GI50 is 20.5 µM (inactive).

**Q.** And the GI50 [14]?
**A.** Its GI50 is 2.22 µM (inactive).

**Q.** What about the GI50 [15] of the same compound?
**A.** Its GI50 is 7.85 µM (inactive).

**Q.** What about the GI50 [16] of the same compound?
**A.** Its GI50 is 2.7 µM (inactive).

**Q.** And the GI50 [17]?
**A.** Its GI50 is 11.8 µM (inactive).

**Q.** And the GI50 [18]?
**A.** Its GI50 is 66.4 µM (inactive).

**Q.** And the GI50 [19]?
**A.** The GI50 was 1.53 µM (inactive).

**Q.** What about the GI50 [20] of the same compound?
**A.** The GI50 was 7.94 µM (inactive).
